Test results reported in US20220249415A1, “COMPOSITION OF AZELAIC ACID HAVING ADIPOSE TRIGLYCERIDE HYDROLYSIS EFFECT” (Korea University Research and Business Foundation, priority 2018, published 2022).
Substitutions are numbered along the chain they refer to.

Legend:
[1] = reported results of a study; formed in the body; cited from earlier work
Olfr544 = Olfr544 (Mus musculus, UniProt E9PX47); assay: CRE-luciferase reporter gene assay in Hana3A cell line transfected with Olfr544 expression vector; assay type: cell-based
Olfr544, sequence (E9PX47 entry or part of it): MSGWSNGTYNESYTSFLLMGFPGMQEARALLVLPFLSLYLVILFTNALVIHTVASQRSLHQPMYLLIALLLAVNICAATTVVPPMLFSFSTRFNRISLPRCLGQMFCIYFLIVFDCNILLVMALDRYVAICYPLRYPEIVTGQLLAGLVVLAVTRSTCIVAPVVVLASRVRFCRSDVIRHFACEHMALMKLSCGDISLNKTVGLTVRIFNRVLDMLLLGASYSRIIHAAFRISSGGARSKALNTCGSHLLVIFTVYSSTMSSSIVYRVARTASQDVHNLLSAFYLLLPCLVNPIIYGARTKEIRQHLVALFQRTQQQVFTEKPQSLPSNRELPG
Description: In order to evaluate an activity of azelaic acid as an Olfr544 ligand in vitro assay, reporter gene assay was performed. Generally, a degree of gene expression of the olfactory receptor (OR) in tissue cells was low and a degree of protein expression also was low, such that research into the olfactory receptor was difficult. In order to solve this problem, a Hana3A cell line was supplied from a team led by professor Hiroaki Matsunami of Duke University and used in an experiment (Zhuang H., et al., Nat. Protocol, 3:1402-1413, 2008).
The reporter gene assay was performed as follows. First, after an Olfr544 expression vector and a cAMP response element (CRE)-Luciferase reporter vector were transfected into the Hana3A cell line, the transfected Hana3A cell line was treated with azelaic acid for 18 hours. Then, a luciferase activity was measured using a Firefly luciferase (FL) assay kit, and a dose response curve (DRC) was drawn based on the measured luciferase activity, thereby calculating a 50% effective concentration (EC50) corresponding to an index for determining an effect as a ligand (agonist).

OR2K2 [2] = target: T1, OR2K2 (Homo sapiens, UniProt Q8NGT1, D270A); assay: Luciferase assay of OR2K2 mutants transfected into Hana3A cells; assay type: cell-based; settings: OR2K2 D270A mutant in Hana3A cells
T1 construct: expressed in transfected cells; host or cells: Hana3A
T1 sequence (Q8NGT1 1-316 D270A): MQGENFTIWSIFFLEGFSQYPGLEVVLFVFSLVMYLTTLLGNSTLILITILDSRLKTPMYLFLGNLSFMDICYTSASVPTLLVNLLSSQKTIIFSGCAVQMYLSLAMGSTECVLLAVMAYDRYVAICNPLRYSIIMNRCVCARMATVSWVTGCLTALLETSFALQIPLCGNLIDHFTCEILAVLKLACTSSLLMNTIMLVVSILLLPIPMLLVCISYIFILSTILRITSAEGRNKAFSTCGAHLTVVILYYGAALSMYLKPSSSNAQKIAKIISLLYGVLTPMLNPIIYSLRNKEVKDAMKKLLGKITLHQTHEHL
From the text: (§1) In order to confirm the binding site of the olfactory receptor OR2K2 protein that binds to azelaic acid, among amino acids, Y120, which is a tyrosine (Y) residue, E159, which is a glutamate (E) residue, and D270, which is an aspartate (D) residue, were predicted through in-silico modeling, and the corresponding position of the predicted amino acid residue was subjected to site-directed mutagenesis to obtain a mutant. For negative controls, Y120A, E159A, and D270A mutants in which all three amino acid residues were replaced with alanine were used. For positive controls, Y120F, E159D, and D270E mutants, including Y120F replaced with phenylalanine (F) for Y120, E159D replaced with aspartate for E159, and D270E replaced with glutamate for D270, were used.
(§2) The cDNA clone including the sequence of each OR2K2 mutant for measuring the binding affinity of azelaic acid was transfected into Hana3A cells, and a luciferase assay was performed. […] This is deemed to be because azelaic acid binds to OR2K2 by reacting the E159 and D270 moieties of OR2K2 with both carboxyl groups of azelaic acid.

OR2K2 [3] = assay: as above; assay type: cell-based, human; settings: OR2K2 with both D270 and E159 mutated, Hana3A cells
From the text: as §1, §2

OR2K2 [4] = target: T2, OR2K2 (Homo sapiens, UniProt Q8NGT1, E159A); assay: as above; assay type: cell-based; settings: OR2K2 E159A mutant in Hana3A cells
T2 construct: expressed in transfected cells; host or cells: Hana3A
T2 sequence (Q8NGT1 1-316 E159A): T1 sequence (Q8NGT1 1-316 D270A) with E159A, A270D
From the text: as §1, §2

OR2K2 [5] = target: T3, OR2K2 (Homo sapiens, UniProt Q8NGT1); assay: siRNA knock-down of OR2K2 in HepG2 cells, fatty acid oxidation-related gene expression; assay type: cell-based
T3 construct: endogenous in cells; host or cells: HepG2
T3 sequence (Q8NGT1 1-316): T1 sequence (Q8NGT1 1-316 D270A) with A270D
From the text: The gene expression of OR1E1, OR1K1, OR2K2, OR2S2, OR13C5, and OR51E2, corresponding to the top 6 receptors among 10 human olfactory receptors selected to be expressed in both adipose tissue and liver tissue while interacting with azelaic acid, was knocked down with siRNA in human-derived liver cell and adipocyte lines, namely HepG2 cells and hAMSC cells, respectively. Here, siRNAs that were used were OR1E2 siRNA (sc-93932), OR1K2 (sc-92810), OR2K2 (sc-92852), OR2S2 (sc-92505), OR13C5 (sc-92899), and OR51E2 (sc-76265), purchased from Santa Cruz Biotechnology Inc. (Dallas, Tx USA).
After knock-down treatment, the cell lines were treated with azelaic acid, and triglyceride hydrolysis and fatty acid oxidation-related gene expression in HepG2 cells as a human-derived liver cell line and hAMSC cells as a human-derived adipocyte line were measured.

protein kinase A (PKA) = assay: PKA kinase activity in 3T3-L1 adipocytes; assay type: cell-based, mouse; settings: azelaic acid 50 μM, 2 hours
From the text: A representative protein regulating protein activities associated with signal transduction depending on a change in concentration of intracellular cAMP in the tissue cells is protein kinase A (PKA). Under general conditions, since an enzyme active site is blocked by a regulatory domain site of protein, a PKA activity is suppressed, but when the concentration of cAMP is increased, cAMP is bound to a regulatory site of PKA to expose an active site, such that the PKA activity is increased. In the present experiment, a change in PKA activity by azelaic acid was measured. The PKA activity was measured using an Enzo PKA kinase activity kit (Cat. #ADI-EKS-390A, Enzo Life Sciences, Korea).

EC50 (Olfr544; Olfr544 + CRE-Luciferase reporter in Hana3A cells, 18 hours): 29.7 µM
Olfr544 activity (Olfr544; concentration range of 1 to 1000 μM): concentration-dependently increased
activity of azelaic acid (luciferase) (OR2K2 [2]): statistically significantly decreased
activity of azelaic acid (luciferase) (OR2K2 [4]): statistically significantly decreased
expression of fatty acid oxidation-related genes (PPARa, CTP1, Acox2) upon treatment with azelaic acid (OR2K2 [5]; HepG2 cells during knock-down of OR2K2): did not change
expression of fatty acid oxidation-related genes (PPARa, CTP1, Acox2), knocked-down group compared to control group (OR2K2 [5]; HepG2 cells, OR2K2 knock-down, upon treatment with azelaic acid): statistically significantly decreased
Structure (SMILES): O=C(O)CCCCCCCC(=O)O [azelaic acid, nonanedioic acid]
concentration of azelaic acid in a human body [1]: 10 to 50 µM
azelaic acid reaction (luciferase) (OR2K2 [3]): statistically significantly reduced
PKA activity increased as compared to a control (protein kinase A (PKA)): 113.8%
